Measured values taken from patent US20250332266A1, “COMPOUNDS FOR THE DEGRADATION OF EGFR KINASE” (BeiGene Switzerland GmbH, priority 2022, published 2025).

How the values were obtained:
[1] = target: EGFR Del19/T790M/C797S (H1975-clone #28) (Homo sapiens, UniProt P00533, T790M/C797S, form not given); assay: EGFR degradation, HTRF total-EGFR assay, H1975-clone #28 (DTC); type: cell-based; settings: H1975-clone #28 Del19/T790M/C797S, 16 h treatment
Outline: (§1)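 H1975 clones with endogenous EGFR knocked out and homozygous exogenous EGFR mutants (#28 Del19/T790M/C797S; #25 L858R/T790M/C797S) treated 16 h at 37 °C, 8 doses, 5-fold from 10 μM, 0.2% DMSO. Total EGFR measured by HTRF on lysates, normalised to DMSO controls; DC50 and Dmax from curve fit.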

[2] = target: T1, EGFR L858R/T790M/C797S (H1975-clone #25) (Homo sapiens, UniProt P00533, C797S/L858R/T790M); assay: EGFR degradation, HTRF total-EGFR assay, H1975-clone #25 (LTC); type: cell-based; settings: H1975-clone #25 L858R/T790M/C797S, 16 h treatment
T1 construct: expressed in transfected cells; host or cells: H1975 (clone #25), lentiviral transduction, endogenous EGFR knocked out
Outline: as §1

Sequence of EGFR Del19/T790M/C797S (H1975-clone #28) (P00533 with tags, fused parts or gaps DEL746-750/T790M/C797S, form open): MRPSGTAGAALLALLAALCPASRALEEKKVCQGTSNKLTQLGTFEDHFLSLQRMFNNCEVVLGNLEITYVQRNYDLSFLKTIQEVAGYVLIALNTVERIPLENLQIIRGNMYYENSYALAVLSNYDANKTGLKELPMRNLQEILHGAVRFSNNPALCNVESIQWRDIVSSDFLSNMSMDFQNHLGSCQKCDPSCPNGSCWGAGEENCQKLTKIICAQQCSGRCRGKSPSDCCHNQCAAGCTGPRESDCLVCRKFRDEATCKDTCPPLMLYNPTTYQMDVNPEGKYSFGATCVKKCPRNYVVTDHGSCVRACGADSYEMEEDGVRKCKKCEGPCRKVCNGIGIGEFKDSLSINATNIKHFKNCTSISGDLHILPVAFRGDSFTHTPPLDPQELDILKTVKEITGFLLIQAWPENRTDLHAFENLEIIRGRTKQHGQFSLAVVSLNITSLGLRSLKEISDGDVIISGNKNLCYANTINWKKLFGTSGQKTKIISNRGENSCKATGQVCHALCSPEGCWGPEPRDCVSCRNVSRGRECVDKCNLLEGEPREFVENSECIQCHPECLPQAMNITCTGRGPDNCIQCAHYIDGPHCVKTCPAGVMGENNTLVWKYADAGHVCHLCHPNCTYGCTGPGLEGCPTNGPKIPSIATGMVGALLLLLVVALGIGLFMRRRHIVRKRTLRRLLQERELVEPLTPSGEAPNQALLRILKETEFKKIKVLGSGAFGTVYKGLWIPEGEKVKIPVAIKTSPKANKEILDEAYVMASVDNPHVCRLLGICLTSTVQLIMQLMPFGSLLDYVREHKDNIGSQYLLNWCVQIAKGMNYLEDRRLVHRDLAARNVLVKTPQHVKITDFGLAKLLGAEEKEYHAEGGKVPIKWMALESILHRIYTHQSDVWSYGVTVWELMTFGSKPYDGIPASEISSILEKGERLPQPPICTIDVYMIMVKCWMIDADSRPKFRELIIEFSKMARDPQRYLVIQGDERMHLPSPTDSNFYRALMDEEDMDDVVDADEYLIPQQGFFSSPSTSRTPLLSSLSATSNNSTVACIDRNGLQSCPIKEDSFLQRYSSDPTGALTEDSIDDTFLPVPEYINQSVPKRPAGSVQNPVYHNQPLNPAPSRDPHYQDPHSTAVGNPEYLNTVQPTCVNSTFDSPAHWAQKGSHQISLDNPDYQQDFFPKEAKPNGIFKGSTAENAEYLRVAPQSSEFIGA
T1 sequence (P00533 25-1210 T790M/C797S/L858R): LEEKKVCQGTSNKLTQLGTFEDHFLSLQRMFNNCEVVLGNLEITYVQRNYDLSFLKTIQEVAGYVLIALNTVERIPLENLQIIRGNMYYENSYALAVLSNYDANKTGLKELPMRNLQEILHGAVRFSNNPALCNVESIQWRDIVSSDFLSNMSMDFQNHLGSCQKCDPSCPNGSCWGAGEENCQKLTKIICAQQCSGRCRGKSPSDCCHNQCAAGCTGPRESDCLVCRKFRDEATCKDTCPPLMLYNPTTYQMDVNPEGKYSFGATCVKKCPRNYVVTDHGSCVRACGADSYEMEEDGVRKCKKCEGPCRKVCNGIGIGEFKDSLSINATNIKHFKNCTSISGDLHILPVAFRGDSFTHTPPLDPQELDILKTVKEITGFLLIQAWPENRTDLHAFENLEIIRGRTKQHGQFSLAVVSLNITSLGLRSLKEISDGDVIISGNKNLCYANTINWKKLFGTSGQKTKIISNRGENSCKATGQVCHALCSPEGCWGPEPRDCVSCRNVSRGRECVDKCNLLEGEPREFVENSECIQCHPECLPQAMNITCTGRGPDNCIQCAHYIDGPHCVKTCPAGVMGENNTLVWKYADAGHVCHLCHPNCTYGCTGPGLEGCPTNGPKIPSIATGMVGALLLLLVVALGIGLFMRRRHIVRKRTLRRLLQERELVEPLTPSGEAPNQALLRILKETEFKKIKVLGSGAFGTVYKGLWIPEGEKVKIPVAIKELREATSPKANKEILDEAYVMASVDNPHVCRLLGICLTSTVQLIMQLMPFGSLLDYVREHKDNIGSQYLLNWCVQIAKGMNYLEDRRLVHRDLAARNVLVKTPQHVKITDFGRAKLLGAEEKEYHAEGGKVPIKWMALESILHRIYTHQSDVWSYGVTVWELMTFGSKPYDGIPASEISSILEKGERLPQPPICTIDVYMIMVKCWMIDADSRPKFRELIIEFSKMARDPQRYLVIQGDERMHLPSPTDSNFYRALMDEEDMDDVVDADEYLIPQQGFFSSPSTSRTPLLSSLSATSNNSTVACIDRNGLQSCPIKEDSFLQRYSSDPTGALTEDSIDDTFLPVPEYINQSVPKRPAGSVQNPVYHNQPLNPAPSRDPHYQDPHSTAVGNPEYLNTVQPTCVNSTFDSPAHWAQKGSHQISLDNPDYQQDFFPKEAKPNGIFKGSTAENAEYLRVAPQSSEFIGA

Row | Compound | Degradation H1975 # 28 DTC [1] | Degradation H1975 # 25-LTC [2]
1 | Cc1cc2cc(n1)-c1cnn(C)c1OC[C@H]1C[C@@H](CN3/C(=N/C2=O)Nc2ccc(N4CCN(C5CCN(c6cnc([C@H]7CCC(=O)NC7=O)cc6C)CC5)C[C@@H]4C)cc23)C1 [Example 32, 3-(5-(4-((S)-4-((7^1s,7^3R,E)-1^1,2^6-dimethyl-3-oxo-5^1,5^3-dihydro-1^1H,5^1H-9-oxa-4-aza-5(2,1)-benzo[d]imidazola-2(2,4)-pyridina-1(4,5)-pyrazola-7(1,3)-cyclobutanacyclononaphane-5^6-yl)-3-methylpiperazin-1-yl)piperidin-1-yl)-4-methylpyridin-2-yl)piperidine-2,6-dione] | 88.8 | 88.8
2 | Cc1cc2cc(n1)-c1cnn(C)c1OC[C@H]1C[C@@H](CN3/C(=N/C2=O)Nc2ccc(N4CCN(C5CCN(c6ccc(C7CCC(=O)NC7=O)nc6C)CC5)C(=O)C4)cc23)C1 (some centres unmarked) [Example 26, 3-(5-(4-(4-((7^1s,7^3s,E)-1^1,2^6-dimethyl-3-oxo-5^2,5^3-dihydro-1^1H,5^1H-9-oxa-4-aza-5(2,1)-benzo[d]imidazola-2(2,4)-pyridina-1(4,5)-pyrazola-7(1,3)-cyclobutanacyclononaphane-5^6-yl)-2-oxopiperazin-1-yl)piperidin-1-yl)-6-methylpyridin-2-yl)piperidine-2,6-dione] | 90.8 | 92.1
3 | Cc1cc2cc(n1)-c1cnn(C)c1OC[C@H]1C[C@@H](CN3/C(=N/C2=O)Nc2ccc(N4CCN([C@H]5CCN(c6ccc(C7CCC(=O)NC7=O)nc6C)CC5(F)F)CC4)cc23)C1 (stereo partly drawn) [Example 125, 3-(5-((S)-4-(4-((7^1s,7^3R,E)-1^1,2^6-dimethyl-3-oxo-5^2,5^3-dihydro-1^1H,5^1H-9-oxa-4-aza-5(2,1)-benzo[d]imidazola-2(2,4)-pyridina-1(4,5)-pyrazola-7(1,3)-cyclobutanacyclononaphane-5^6-yl)piperazin-1-yl)-3,3-difluoropiperidin-1-yl)-6-methylpyridin-2-yl)piperidine-2,6-dione] | 89.9 | 86.8
4 | Cc1cc2cc(n1)-c1cnn(C)c1OC[C@H]1C[C@@H](CN3/C(=N/C2=O)Nc2ccc(N4C[C@@H]5C[C@H]4CN5C4CCN(c5ccc(C6CCC(=O)NC6=O)nc5C)CC4)cc23)C1 (stereo partly drawn) [Example 117, 3-(5-(4-((1S,4S)-5-((7^1s,7^3R,E)-1^1,2^6-dimethyl-3-oxo-5^2,5^3-dihydro-1^1H,5^1H-9-oxa-4-aza-5(2,1)-benzo[d]imidazola-2(2,4)-pyridina-1(4,5)-pyrazola-7(1,3)-cyclobutanacyclononaphane-5^6-yl)-2,5-diazabicyclo[2,2,1]heptan-2-yl)piperidin-1-yl)-6-methylpyridin-2-yl)piperidine-2,6-dione] | 78.2 | 90.6
5 | Cc1cc2cc(n1)-c1cnn(C)c1OC[C@H]1C[C@@H](CN3/C(=N/C2=O)Nc2ccc(N4CC5CCC4CN5C4CCN(c5ccc(C6CCC(=O)NC6=O)nc5C)CC4)cc23)C1 (some centres unmarked) [Example 126, 3-(5-(4-(5-((7^1s,7^3s,E)-1^1,2^6-dimethyl-3-oxo-5^2,5^3-dihydro-1^1H,5^1H-9-oxa-4-aza-5(2,1)-benzo[d]imidazola-2(2,4)-pyridina-1(4,5)-pyrazola-7(1,3)-cyclobutanacyclononaphane-5^6-yl)-2,5-diazabicyclo[2.2.2]octan-2-yl)piperidin-1-yl)-6-methylpyridin-2-yl)piperidine-2,6-dione] | 80.5 | 85.9
6 | Cc1cc2cc(n1)-c1cnn(C)c1OC[C@H]1C[C@@H](CN3/C(=N/C2=O)Nc2ccc(N4CC5CCC4CN5C4CCN(c5cnc(C6CCC(=O)NC6=O)cc5C)CC4)cc23)C1 (some centres unmarked) [Example 132, 3-(5-(4-(5-((7^1s,7^3s,E)-1^1,2^6-dimethyl-3-oxo-5^2,5^3-dihydro-1^1H,5^1H-9-oxa-4-aza-5(2,1)-benzo[d]imidazola-2(2,4)-pyridina-1(4,5)-pyrazola-7(1,3)-cyclobutanacyclononaphane-5^6-yl)-2,5-diazabicyclo[2.2.2]octan-2-yl)piperidin-1-yl)-4-methylpyridin-2-yl)piperidine-2,6-dione] | 77.3 | 88.3
7 | Cc1cc2cc(n1)-c1cnn(C)c1OC[C@H]1C[C@@H](CN3/C(=N/C2=O)Nc2ccc(N4CCN([C@@H]5CCN(c6cc(F)c([C@H]7CCC(=O)NC7=O)c(F)c6)C[C@@H]5F)CC4)cc23)C1 [Example 66, (R)-3-(4-((3S,4R)-4-(4-((7^1s,7^3S,E)-1^1,2^6-dimethyl-3-oxo-5^2,5^3-dihydro-1^1H,5^1H-9-oxa-4-aza-5(2,1)-benzo[d]imidazola-2(2,4)-pyridina-1(4,5)-pyrazola-7(1,3)-cyclobutanacyclononaphane-5^6-yl)piperazin-1-yl)-3-fluoropiperidin-1-yl)-2,6-difluorophenyl)piperidine-2,6-dione] | 82.1 | 75.9
8 | Cc1cc2cc(n1)-c1cnn(C)c1OC[C@H]1C[C@@H](CN3/C(=N/C2=O)Nc2ccc(N4CC[C@H](N5CCN(c6ccc(C7CCC(=O)NC7=O)nc6C)CC5)C(F)(F)C4)cc23)C1 (stereo partly drawn) [Example 122, 3-(5-(4-((S)-1-((7^1s,7^3R,E)-1^1,2^6-dimethyl-3-oxo-5^2,5^3-dihydro-1^1H,5^1H-9-oxa-4-aza-5(2,1)-benzo[d]imidazola-2(2,4)-pyridina-1(4,5)-pyrazola-7(1,3)-cyclobutanacyclononaphane-5^6-yl)-3,3-difluoropiperidin-4-yl)piperazin-1-yl)-6-methylpyridin-2-yl)piperidine-2,6-dione] | 84.1 | 90.9
9 | Cc1cc2cc(n1)-c1cnn(C)c1OC[C@H]1C[C@@H](CN3/C(=N/C2=O)Nc2ccc(N4CCN([C@@H]5CCN(c6cnc(C7CCC(=O)NC7=O)cc6C)C[C@H]5F)CC4)cc23)C1 (stereo partly drawn) [Example 138, 3-(5-((3R,4R)-4-(4-((7^1s,7^3S,E)-1^1,2^6-dimethyl-3-oxo-5^2,5^3-dihydro-1^1H,5^1H-9-oxa-4-aza-5(2,1)-benzo[d]imidazola-2(2,4)-pyridina-1(4,5)-pyrazola-7(1,3)-cyclobutanacyclononaphane-5^6-yl)piperazin-1-yl)-3-fluoropiperidin-1-yl)-4-methylpyridin-2-yl)piperidine-2,6-dione] | 90.9 | 88.4
10 | Cc1cc2cc(n1)-c1cnn(C)c1OC[C@H]1C[C@@H](CN3/C(=N/C2=O)Nc2ccc(N4CC5(C4)CN(C4CCN(c6ccc(C7CCC(=O)NC7=O)nc6C)CC4)C5)cc23)C1 (some centres unmarked) [Example 113, 3-(5-(4-(6-((7^1s,7^3s,E)-1^1,2^6-dimethyl-3-oxo-5^2,5^3-dihydro-1^1H,5^1H-9-oxa-4-aza-5(2,1)-benzo[d]imidazola-2(2,4)-pyridina-1(4,5)-pyrazola-7(1,3)-cyclobutanacyclononaphane-5^6-yl)-2,6-diazaspiro[3.3]heptan-2-yl)piperidin-1-yl)-6-methylpyridin-2-yl)piperidine-2,6-dione] | 75.7 | 78.4
